Measurements from patent publication US7067667B2, “Aminoalkyl-3, 4-dihydroquinoline derivatives as no-synthase inhibitors” (Schering Aktiengesellschaft, priority 1998, dated 2006).
Structures can show the parent of a compound that is named as a salt.

Molecular target: bNOS (UniProt P29475)
Assay: bNOS inhibition (method of Bredt and Snyder)
Assay type: biochemical
Source text: The NOS-inhibitory action of the compounds of Formula (I) and their physiologically compatible salts can be determined according to the methods by Bredt and Snyder in Proc. Natl. Acad. Sci. USA (1989) 86, 9030–9033.

With `NC1=Nc2cc(CCNCc3cccc(Cl)c3)c(Cl)cc2C2CCCC12` (stereo not shown) [Example 8, 4-Amino-8-chloro-7-(3-chlorobenzylamino)ethyl-2,3,3a,9b-tetrahydro-1H-cyclopenta[c]quinoline Dihydrochloride] as the compound, how does the IC50 read?
Its IC50 is 190 nM.
